The text below walks through data of publication PMC11323271 (Journal of Chemical Information and Modeling, 2024).

≈ marks a conversion by molar mass, not a printed value. Entries after “also recorded” stand apart in the source; their conditions may differ.

Series [1] has as its system M. tuberculosis H37Ra. As to the kind of experiment: microbe, parasite or virus in culture. Format: cell-based, Mycobacterium tuberculosis. The following applies: for MIC: Mycobacterium tuberculosis, H37RA, 168 h, read-out: MIC against M. tuberculosis H37Ra.
For series [2], the target named is M. tuberculosis DNA gyrase holoenzyme (GyrB ATPase activity) (Mycobacterium tuberculosis, UniProt P9WG45). Nature of the series: biochemical. The following applies: for IC50 / IC50 for inhibition of M. tuberculosis DNA gyrase ATPase activity: triplicate, at least 11 inhibitor concentrations; for IC50: read-out: IC50 for inhibition of M. tuberculosis DNA gyrase ATPase activity.

In series [3] the test system is Caco-2 cells. As to the kind of experiment: In vitro cytotoxicity, MTT assay. Format: cell-based. Here is the method:
Caco-2 cells (ATCC no. HTB-37) were used for cytotoxicity testing of selected compounds as described in our previous work.[32] Cell viability of tested compounds on Caco-2 cells was determined using 3-(4,5-dimethylthiazol-2-yl)-2,5-diphenyltetrazolium bromide (MTT) following a modified assay procedure.[52] Absorbance was measured at 590 nm using a microplate reader (Infinite M200 PRO, Tecan Group Ltd., Switzerland). The experiment was performed in triplicate and compound concentrations at which cells retained a viability of more than 80% were considered as nontoxic to cells.[53]
Figure S1. Hit compound cytotoxicity against Caco-2 cells. Cells were incubated with different concentrations of compounds (1 (A), 2 (B), 3 (C), 8 (D), 11 (E), 14 (F), G24 (G), and G26 (H)) for 24 h and viability measured by MTT assay. Data are presented as the mean ± SD (n = 6). The yellow bars represent the maximum concentrations at which compounds are non-cytotoxic towards Caco-2 cells.
(1 picture or pasted object on this page, not shown here)
(In general: Tetrazolium assays rely on reduction of a dye to a coloured formazan, in cell work by metabolically active cells.)

In series [4] the test system is M. tuberculosis. The conditions noted are these: cited from earlier work.
Series [5] concerns M. tuberculosis H37Ra. The conditions noted are these: previous virtual screening work; cited from earlier work.
Series [6] deals with M. tuberculosis H37Rv. The conditions noted are these: cited from earlier work.

Chain of M. tuberculosis DNA gyrase holoenzyme (GyrB ATPase activity) (P9WG45 whole entry, looked up): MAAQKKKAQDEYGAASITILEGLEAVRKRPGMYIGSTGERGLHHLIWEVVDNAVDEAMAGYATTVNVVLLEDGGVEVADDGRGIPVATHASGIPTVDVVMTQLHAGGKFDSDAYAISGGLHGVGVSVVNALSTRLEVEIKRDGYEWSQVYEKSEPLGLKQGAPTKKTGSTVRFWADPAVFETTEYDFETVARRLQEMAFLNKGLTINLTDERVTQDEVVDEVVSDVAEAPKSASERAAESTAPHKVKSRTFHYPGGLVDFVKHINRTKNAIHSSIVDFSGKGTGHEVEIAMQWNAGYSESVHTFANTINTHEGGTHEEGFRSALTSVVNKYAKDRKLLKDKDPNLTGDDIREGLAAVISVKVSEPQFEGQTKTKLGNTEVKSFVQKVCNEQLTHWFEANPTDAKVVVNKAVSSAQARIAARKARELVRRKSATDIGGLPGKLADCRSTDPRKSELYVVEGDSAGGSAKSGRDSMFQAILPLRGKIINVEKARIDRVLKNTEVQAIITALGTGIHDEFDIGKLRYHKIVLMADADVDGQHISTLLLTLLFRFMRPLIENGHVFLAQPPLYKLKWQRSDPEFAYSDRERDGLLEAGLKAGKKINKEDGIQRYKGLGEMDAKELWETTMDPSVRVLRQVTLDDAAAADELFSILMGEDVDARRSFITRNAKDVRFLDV

Regarding `Cc1ccc(NCC(O)Cn2c3ccccc3c3ccccc32)cc1Cl` (stereo not shown) [Compound 4], the MIC in series [1] is more than 100 µg/mL.
The IC50 is the concentration that gives 50% inhibition. Regarding `CCn1c2ccccc2c2cc(CNCCNCC(C)O)ccc21` (stereo not shown) [Compound 8], the MIC in series [1] stood at 25 µg/mL (≈ 76.8 µM). In series [2], the “ATPase inhibition, fold more effective than carbazole derivative 1” value is “approximately 3 fold”; the “ATPase inhibition, fold more effective than carbazole derivative 2” value is approximately 5 fold; the “ATPase inhibition, fold more effective than carbazole derivative 3” value is approximately 15 fold; the “IC50 fold better than novobiocin” value stood at 5 fold. Further, in series [2], the half-inhibitory concentration (IC50) turned out to be 0.26 µM. In series [3] (human, Caco-2, 24 h), the “maximum non-cytotoxic concentration toward Caco-2 cells” value was determined as 12.5 µg/mL.
For `Cc1cc(C)c2c(c1)c(-c1ccccc1)c(-c1ccccc1)n2CC(O)CN1CCOCC1` (stereo not shown) [Compound 12], in series [1], the MIC came out at 12.5 µg/mL (≈ 28.4 µM). Moreover, the “IC50 for inhibition of M. tuberculosis DNA gyrase ATPase activity” value (shortened to “IC50 for inhibition”) in series [2] was “inactive; also recorded: absence of observable ATPase inhibition”.
Take `OCCNCC(O)Cn1c(-c2ccccc2)c(-c2ccccc2)c2ccc3ccccc3c21` (stereo not shown) [Compound 11]: the MIC in series [1] is 3.1 µg/mL (≈ 7.1 µM). Also, in series [2], the “IC50 fold better than novobiocin” value is recorded as 2 fold and the IC50 was 0.56 µM. In addition, the “maximum non-cytotoxic concentration toward Caco-2 cells” value in series [3] (human, Caco-2, 24 h) was determined as 0.87 µg/mL.
On to `Cc1ccc2c(c1)c(-c1ccccc1)c(-c1ccccc1)n2CC(O)CNC(CO)(CO)CO` (stereo not shown) [Compound 14], for which the MIC in series [1] is 6.2 µg/mL (≈ 13.5 µM). Moreover, in series [2], the “IC50 fold better than novobiocin” value was 16 fold and the IC50 came out at 0.08 µM. The “maximum non-cytotoxic concentration toward Caco-2 cells” value in series [3] (human, Caco-2, 24 h) amounted to 12.5 µg/mL.
Consider `O=C(NNCC(O)Cn1c2ccccc2c2ccccc21)c1ccccc1` (stereo not shown) [Compound 5], for which the MIC in series [1] was more than 100 µg/mL.
For the molecule `OC(CNCCC1C=Nc2ccccc21)Cn1c2ccccc2c2ccccc21` (stereo not shown) [Compound 1], the MIC in series [1] amounted to 6.2 µg/mL (≈ 16.2 µM). In series [2], the half-maximal inhibitory concentration (IC50) turned out to be 0.73 µM. The “maximum non-cytotoxic concentration toward Caco-2 cells” value in series [3] (human, Caco-2, 24 h) amounted to 25.0 µg/mL.
For `OC(CN1CCN(c2ccccn2)CC1)Cn1c2ccccc2c2ccccc21` (stereo not shown) [AG-690/11353646], the IC50 in series [4] was 36.1 µM.
`CO[C@@H]1[C@@H](OC(N)=O)[C@@H](O)[C@H](Oc2ccc3c(O)c(NC(=O)c4ccc(O)c(CC=C(C)C)c4)c(=O)oc3c2C)OC1(C)C` [Novobiocin, reference compound]: in series [1], the “MIC against M. tuberculosis H37Ra” value is more than 100 µg/mL and the MIC is more than 100 µg/mL. Further, the “MIC against M. tuberculosis (previous work)” value in series [5] is on record as “exceeding 100 μg/mL”.
In the case of `Cc1ccc(NCC(O)Cn2c3ccccc3c3ccccc32)cc1` (stereo not shown) [Compound 7], the MIC in series [1] is more than 100 µg/mL.
Take `Cc1ccc2c(c1)c(-c1ccccc1)c(-c1ccccc1)n2CC(O)CN(CCO)CCO` (stereo not shown) [G24, reference compound]: the MIC in series [1] turned out to be 12.5 µg/mL (≈ 28.1 µM). Moreover, the “MIC against M. tuberculosis (previous work)” value in series [5] is 12.5 µg/mL (≈ 28.1 µM). Further, the IC50 in series [2] came out at 2.69 µM. Further, the “maximum non-cytotoxic concentration, fold higher than for G26” value in series [3] (human, 24 h) is 15 fold. Also, the “maximum non-cytotoxic concentration toward Caco-2 cells” value in series [3] (human, Caco-2, 24 h) came to 25 µg/mL.
On to `Cc1ccc2c(c1)c(-c1ccccc1)c(-c1ccccc1)n2CC(O)CN1CCOCC1` (stereo not shown) [Compound 13], for which the MIC in series [1] was 12.5 µg/mL (≈ 29.3 µM). In addition, the “IC50 for inhibition” value in series [2] is “inactive; also recorded: absence of observable ATPase inhibition”.
Taken in the same sequence, the figures for `OC(CN1CCOCC1)Cn1c(-c2ccccc2)c(-c2ccccc2)c2ccc3ccccc3c21` (stereo not shown) [Compound 9] were 12.5 µg/mL (≈ 27 µM) and “inactive; also recorded: absence of observable ATPase inhibition”.
Take `CCc1ccc(NCC(O)Cn2c3ccccc3c3ccccc32)cc1` (stereo not shown) [Compound 6]: the MIC in series [1] is more than 100 µg/mL.
`COc1ccc(CCNCC(O)Cn2c3ccccc3c3ccccc32)cc1OC` (stereo not shown) [AF-399/41048884]: the IC50 in series [6] is 10.6 µM.
Consider `OC(CNCc1ccco1)Cn1c(-c2ccccc2)c(-c2ccccc2)c2ccc3ccccc3c21` (stereo not shown) [Compound 10], for which the MIC in series [1] was 3.1 µg/mL (≈ 6.56 µM). In series [2], the “IC50 for inhibition” value was “inactive; also recorded: absence of observable ATPase inhibition”.
For `OC(CNCc1ccccc1)Cn1c2ccccc2c2ccccc21` (stereo not shown) [Compound 3], the MIC in series [1] is 12.5 µg/mL (≈ 37.8 µM). The concentration for half-maximal inhibition (IC50) in series [2] stood at 3.82 µM. The “maximum non-cytotoxic concentration toward Caco-2 cells” value in series [3] (24 h, MTT, viability of more than 80% considered nontoxic) was determined as 12.5 µg/mL.
In the case of `OC(CNCCOc1ccccc1)Cn1c2ccccc2c2ccccc21` (stereo not shown) [Compound 2], in series [1], the MIC was 6.2 µg/mL (≈ 17.2 µM). Also, the IC50 in series [2] was found to be 1.34 µM. Further, the “maximum non-cytotoxic concentration toward Caco-2 cells” value in series [3] (human, Caco-2, 24 h) worked out at 12.5 µg/mL.
